Assay results from patent US10294202B2, “Pyrrolidinones as herbicides” (FMC Corporation, priority 2013, dated 2019).

Tests used:
corn = test: Test A pre-/postemergence herbicide test; type: in vivo, Zea mays; conditions: Postemergence
Summary of the method: (§1)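 Seeds sown in loam soil/sand blend received a preemergence directed soil spray of test chemical in non-phytotoxic solvent with surfactant; postemergence plants (2–10 cm, one- to two-leaf stage) were sprayed with the same formulation. After about 10 days in greenhouse, injury was rated visually versus untreated controls, 0 (no effect) to 100 (complete control).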

pigweed = test: Test A pre-/postemergence herbicide test; type: in vivo, Amaranthus retroflexus
Summary of the method: as §1

barnyardgrass [1] = test: Test B flooded paddy test; type: in vivo, Echinochloa crus-galli; conditions: 500 g ai/ha, Flood; scale of 0 to 100 where 0 is no effect and 100 is complete control
Summary of the method: (§2)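 In-water application to pots flooded 3 cm deep, plants at 2-leaf stage. Held in greenhouse 13–15 days at constant flood depth. Scored 0–100 by eye against controls.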

blackgrass = test: Test A postemergence herbicide test; type: in vivo, Alopecurus myosuroides
Summary of the method: (§3)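 Blackgrass and galium grown in pots of loam soil–sand blend, treated postemergence at 2–10 cm height, one- to two-leaf stage. Plants kept in greenhouse ~10 days, then visually rated for injury against untreated controls on a 0–100 scale (0 no effect, 100 complete control).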

ryegrass, Italian = test: Test A pre-/postemergence herbicide test; type: in vivo, Lolium multiflorum
Summary of the method: as §1

ragweed = test: Test A pre-/postemergence herbicide test; type: in vivo, Ambrosia elatior
Summary of the method: as §1

rice = test: Test B flooded paddy test; type: in vivo, Oryza sativa; conditions: 500 g ai/ha, Flood; scale of 0 to 100 where 0 is no effect and 100 is complete control
Summary of the method: as §2

sedge, umbrella = test: Test B flooded paddy test; type: in vivo, Cyperus difformis; conditions: 500 g ai/ha, Flood; scale of 0 to 100 where 0 is no effect and 100 is complete control
Summary of the method: as §2

giant foxtail = test: Test A pre-/postemergence herbicide test; type: in vivo, Setaria faberii
Summary of the method: as §1

ducksalad = test: Test B flooded paddy test; type: in vivo, Heteranthera limosa; conditions: 500 g ai/ha, Flood; scale of 0 to 100 where 0 is no effect and 100 is complete control
Summary of the method: as §2

galium = test: Test A postemergence herbicide test; type: in vivo, Galium aparine
Summary of the method: as §3

wheat = test: Test A pre-/postemergence herbicide test; type: in vivo, Triticum aestivum; conditions: Postemergence
Summary of the method: as §1

barnyardgrass [2] = test: Test A pre-/postemergence herbicide test; type: in vivo, Echinochloa crus-galli
Summary of the method: as §1

kochia = test: Test A pre-/postemergence herbicide test; type: in vivo, Kochia scoparia
Summary of the method: as §1

[3] = 125 g ai/ha, 0 to 100 scale, 0 is no effect, 100 is complete control
[4] = 125 g ai/ha, visual rating, 0 to 100 scale, 0 no effect, 100 complete control, approximately 10 days, preemergence
[5] = Postemergence, 125 g ai/ha, 0 to 100 scale, 0 is no effect, 100 is complete control
[6] = preemergence, 500 g ai/ha, 0 to 100 scale, 0 is no effect and 100 is complete control
[7] = 500 g ai/ha, 0 to 100 scale (0 no effect, 100 complete control)
[8] = Postemergence, 125 g ai/ha, visual rating on 0 to 100 scale (0 no effect, 100 complete control), approx. 10 days
[9] = Postemergence, 500 g ai/ha, 0 to 100 scale (0 no effect, 100 complete control)
[10] = Preemergence, 125 g ai/ha, 0 to 100 scale where 0 is no effect and 100 is complete control
[11] = 125 g ai/ha, visual rating on 0 to 100 scale (0 no effect, 100 complete control), approx. 10 days
[12] = Preemergence, 500 g ai/ha, visual rating on 0 to 100 scale (0 no effect, 100 complete control)

`Cc1ccccc1NC(=O)C1C(=O)NCC1c1ccc(OC(F)F)cc1` (stereo not drawn) [Compound 227] was tested, and the “Plant response rating, Corn” value (corn; [3]) was 0, the “Corn plant response rating (0 to 100 scale, 0 is no effect, 100 is complete control)” value (corn; 500 g ai/ha) was 0 and the “Plant response rating, Pigweed” value (pigweed; [4]) was 0. For the same compound, the “Plant response rating, Pigweed” value (pigweed; [5]) was 0, the “Pigweed plant response rating (0 to 100 scale, 0 is no effect, 100 is complete control)” value (pigweed; Postemergence, 500 g ai/ha) was 0 and the “Plant response rating, Pigweed” value (pigweed; [6]) was 20. For the same compound, the “Plant response rating, Barnyardgrass” value (barnyardgrass [1]) was 0, the “Plant response rating, Blackgrass” value (blackgrass; [3]) was 0 and the “Blackgrass plant response rating (0 to 100 scale, 0 is no effect, 100 is complete control)” value (blackgrass; 500 g ai/ha) was 40. For the same compound, the “Plant response rating, Ryegrass, Italian” value (ryegrass, Italian; [4]) was 0, the “Plant response rating, Ryegrass, Italian” value (ryegrass, Italian; [5]) was 0 and the “Ryegrass, Italian plant response rating (0 to 100 scale, 0 is no effect, 100 is complete control)” value (ryegrass, Italian; Postemergence, 500 g ai/ha) was 20. The “Plant response rating, Ryegrass, Italian” value (ryegrass, Italian; [6]) was 30, the “Plant response rating, Ragweed” value (ragweed; [4]) was 0 and the “Plant response rating, Ragweed” value (ragweed; [5]) was 0. For the same compound, the “Ragweed plant response rating (0 to 100 scale, 0 is no effect, 100 is complete control)” value (ragweed; Postemergence, 500 g ai/ha) was 0, the “Plant response rating, Ragweed” value (ragweed; [6]) was 0 and the “Plant response rating, Rice” value (rice) was 0. For the same compound, the “Plant response rating, Sedge, Umbrella” value (sedge, umbrella) was 0, the “Plant response rating, Foxtail, Giant” value (giant foxtail; [4]) was 80 and the “Plant response rating, Foxtail, Giant” value (giant foxtail; [5]) was 30. The “Foxtail, Giant plant response rating (0 to 100 scale, 0 is no effect, 100 is complete control)” value (giant foxtail; Postemergence, 500 g ai/ha) was 80, the “Plant response rating, Foxtail, Giant” value (giant foxtail; [6]) was 90 and the “Plant response rating, Ducksalad” value (ducksalad) was 90. The “Plant response rating, Galium” value (galium; [3]) was 0, the “Galium plant response rating (0 to 100 scale, 0 is no effect, 100 is complete control)” value (galium; 500 g ai/ha) was 0 and the “Plant response rating, Wheat” value (wheat; [3]) was 0. The “Wheat plant response rating (0 to 100 scale, 0 is no effect, 100 is complete control)” value (wheat; 500 g ai/ha) was 0, the “Plant response rating, Barnyardgrass” value (barnyardgrass [2]; [4]) was 20 and the “Plant response rating, Barnyardgrass” value (barnyardgrass [2]; [5]) was 20. The “Barnyardgrass plant response rating (0 to 100 scale, 0 is no effect, 100 is complete control)” value (barnyardgrass [2]; Postemergence, 500 g ai/ha) was 80, the “Plant response rating, Barnyardgrass” value (barnyardgrass [2]; [6]) was 50 and the “Plant response rating, Kochia” value (kochia; [4]) was 20. The “Plant response rating, Kochia” value (kochia; [5]) was 0, the “Kochia plant response rating (0 to 100 scale, 0 is no effect, 100 is complete control)” value (kochia; Postemergence, 500 g ai/ha) was 40 and the “Plant response rating, Kochia” value (kochia; [6]) was 20.

`O=C1NCC(c2ccc(Cl)c(Cl)c2)C1C(=O)Nc1ccc(F)cc1F` (racemic) [Compound 272] was tested, and the “Plant response rating, Corn” value (corn; [3]) was 0, the “Plant response rating, Corn” value (corn; [7]) was 10 and the “Plant response rating, Pigweed” value (pigweed; [8]) was 0. The “Plant response rating, Pigweed” value (pigweed; [9]) was 20, the “Plant response rating, Pigweed” value (pigweed; [10]) was 0 and the “Plant response rating, Pigweed” value (pigweed; [6]) was 30. For the same compound, the “Plant response rating, Barnyardgrass” value (barnyardgrass [1]) was 20, the “Plant response rating, Blackgrass” value (blackgrass; [3]) was 0 and the “Plant response rating, Blackgrass” value (blackgrass; [7]) was 30. The “Plant response rating, Ryegrass, Italian” value (ryegrass, Italian; [8]) was 0, the “Plant response rating, Ryegrass, Italian” value (ryegrass, Italian; [9]) was 0 and the “Plant response rating, Ryegrass, Italian” value (ryegrass, Italian; [10]) was 0. The “Plant response rating, Ryegrass, Italian” value (ryegrass, Italian; [6]) was 0, the “Plant response rating, Ragweed” value (ragweed; [8]) was 40 and the “Plant response rating, Ragweed” value (ragweed; [9]) was 0. For the same compound, the “Plant response rating, Ragweed” value (ragweed; [10]) was 0, the “Plant response rating, Ragweed” value (ragweed; [6]) was 0 and the “Plant response rating, Rice” value (rice) was 0. The “Plant response rating, Sedge, Umbrella” value (sedge, umbrella) was 0, the “Plant response rating, Foxtail, Giant” value (giant foxtail; [5]) was 60 and the “Plant response rating, Foxtail, Giant” value (giant foxtail; [9]) was 80. The “Plant response rating, Foxtail, Giant” value (giant foxtail; [10]) was 90, the “Plant response rating, Foxtail, Giant” value (giant foxtail; [6]) was 90 and the “Plant response rating, Ducksalad” value (ducksalad) was 100. For the same compound, the “Plant response rating, Galium” value (galium; [3]) was 30, the “Plant response rating, Galium” value (galium; [7]) was 50 and the “Plant response rating, Wheat” value (wheat; [11]) was 0. For the same compound, the “Plant response rating, Wheat” value (wheat; [7]) was 0, the “Plant response rating, Barnyardgrass” value (barnyardgrass [2]; [5]) was 50 and the “Plant response rating, Barnyardgrass” value (barnyardgrass [2]; [9]) was 80. The “Plant response rating, Barnyardgrass” value (barnyardgrass [2]; [10]) was 70, the “Plant response rating, Barnyardgrass” value (barnyardgrass [2]; [6]) was 90 and the “Plant response rating, Kochia” value (kochia; [5]) was 20. The “Plant response rating, Kochia” value (kochia; [9]) was 60, the “Plant response rating, Kochia” value (kochia; [10]) was 0 and the “Plant response rating, Kochia” value (kochia; [6]) was 20.

`O=C1NCC(c2cccc(I)c2)C1C(=O)Nc1cccc(F)c1F` (stereo not drawn) [Compound 327] was tested, and the “Plant response rating, Corn” value (corn; [11]) was 0, the “Plant response rating, Corn” value (corn; [7]) was 30 and the “Plant response rating, Pigweed” value (pigweed; [8]) was 0. For the same compound, the “Plant response rating, Pigweed” value (pigweed; [9]) was 20, the “Plant response rating, Pigweed” value (pigweed; [10]) was 0 and the “Pigweed plant response rating” value (pigweed; [12]) was 20. For the same compound, the “Plant response rating, Barnyardgrass” value (barnyardgrass [1]) was 0, the “Plant response rating, Blackgrass” value (blackgrass; [11]) was 30 and the “Plant response rating, Blackgrass” value (blackgrass; [7]) was 40. The “Plant response rating, Ryegrass, Italian” value (ryegrass, Italian; [8]) was 20, the “Plant response rating, Ryegrass, Italian” value (ryegrass, Italian; [9]) was 20 and the “Plant response rating, Ryegrass, Italian” value (ryegrass, Italian; [10]) was 40. The “Ryegrass, Italian plant response rating” value (ryegrass, Italian; [12]) was 40, the “Plant response rating, Ragweed” value (ragweed; [8]) was 0 and the “Plant response rating, Ragweed” value (ragweed; [9]) was 20. For the same compound, the “Plant response rating, Ragweed” value (ragweed; [10]) was 20, the “Ragweed plant response rating” value (ragweed; [12]) was 30 and the “Plant response rating, Rice” value (rice) was 0. The “Plant response rating, Sedge, Umbrella” value (sedge, umbrella) was 0, the “Plant response rating, Foxtail, Giant” value (giant foxtail; [8]) was 40 and the “Plant response rating, Foxtail, Giant” value (giant foxtail; [9]) was 80. For the same compound, the “Plant response rating, Foxtail, Giant” value (giant foxtail; [10]) was 80, the “Foxtail, Giant plant response rating” value (giant foxtail; [12]) was 90 and the “Plant response rating, Ducksalad” value (ducksalad) was 60. For the same compound, the “Plant response rating, Galium” value (galium; [11]) was 40, the “Plant response rating, Galium” value (galium; [7]) was 60 and the “Plant response rating, Wheat” value (wheat; [11]) was 0. The “Plant response rating, Wheat” value (wheat; [7]) was 20, the “Plant response rating, Barnyardgrass” value (barnyardgrass [2]; [8]) was 40 and the “Plant response rating, Barnyardgrass” value (barnyardgrass [2]; [9]) was 80. The “Plant response rating, Barnyardgrass” value (barnyardgrass [2]; [10]) was 70, the “Barnyardgrass plant response rating” value (barnyardgrass [2]; [12]) was 80 and the “Plant response rating, Kochia” value (kochia; [8]) was 30. The “Plant response rating, Kochia” value (kochia; [9]) was 40, the “Plant response rating, Kochia” value (kochia; [10]) was 30 and the “Kochia plant response rating” value (kochia; [12]) was 70.
